Experimental data taken from US9119881B2, “Method of synergistically enhancing the therapeutic efficacy and safety of medication through a combination therapy” (priority 2010, dated 2015).

Tests used:
[1] = system: stromal vascular cells (SVCs); assay: Gene expression in LPS-treated stromal vascular cells; format: cell-based, mice; conditions: LPS 100 ng/mL, 6 h, ABA 10 μM, rosiglitazone 1 μM
Description: SVCs from abdominal white adipose tissue were isolated from db/db mice fed high-fat control diet for 60 days. Cells were seeded into 24-well plates at 1×10^6 cells/well and treated with LPS (100 ng/mL) with and without ABA (10 μM), Ros (1 μM), or ABA and Ros (ABA/Ros). The relative expressions of genes peroxisome proliferator activated receptor γ (PPAR γ) (A), CCL17 (B), monocyte chemoattractant protein 1 (MCP-1) (C), and mannose receptor (D) were calculated as a ratio to the housekeeping gene β-actin. Data are represented as mean±standard error.
Isolated cells from the stromal vascular fraction (SVF) of WAT from high-fat fed db/db mice were enumerated and seeded into 24-well plates at […] cells/well. […]
Total RNA was isolated from adipose tissue using the RNeasy Lipid Mini Kit (Qiagen) and from cells using the RNeasy Mini Kit (Qiagen) according to the manufacturer's instructions. […] Each gene amplicon was purified with the MiniElute PCR Purification Kit (Qiagen) and quantitated on an agarose gel by using a DNA mass ladder (Promega). […]
Complementary DNA (cDNA) concentrations for genes of interest were examined by real-time quantitative PCR using an iCycler IQ System and Sybr Green PCR master mix (Applied Biosystems, Foster City, Calif.). […] Results are presented as starting quantity of target cDNA (picograms) per microgram of total RNA.

[2] = system: retinoic acid receptor (RAR); assay: RAR luciferase reporter in transfected 3T3-L1 preadipocytes; format: cell-based; conditions: ABA 10 μM with retinoic acid 10 μM
Description: A pCMX.L-RXR or pCMX.RAR expression plasmid and a luciferase reporter plasmid were purified using Qiagen's Maxi kit (Valencia, Calif.). 3T3-L1 preadipocytes (American Type Culture Collection, Manassas, Va.) were grown in DMEM high glucose medium (Invitrogen, Carlsbad, Calif.) containing 10% fetal bovine serum (FBS). The cells cultured in 25 cm^2 flasks were co-transfected with 0.6 ug plasmid DNA and 1 ng of pRL reporter control plasmid per well using F-2 transfection reagents (Targeting Systems, Santee, Calif.) according to the manufacturer's protocol. After 24 hours, transfected cells were split trypsin and seeded into 96-well white plates at a concentration of 20,000 cells/wells. The transfected cells were then treated with 9-cis retinoic acid (0, 10 μM; Sigma), or retinoic acid (RA, 10 μM; Sigma), with ABA (10 μM; Sigma) Transfected cells were harvested in reporter lysis reagent. Luciferase activity, normalized to pRL activity in the cell extracts was determined by using the dual luciferase reporter assay system (Promega, Madison, Wis.) in a Modulus 96-well plate reader (Turner Biosystems, Sunnyvale, Calif.). Relative luciferase activity (RLA) was calculated as a ratio of the chemiluminescence 10 seconds after the Luciferase Assay Reagent II (Promega) was added over the chemiluminescence 10 seconds after the Stop&Glo Reagent (Promega).

**Q.** How did the “M1 marker CCL17 expression” value [1] turn out when CC1=CC(=O)CC(C)(C)C1(O)/C=C/C(C)=C\C(=O)O (racemic) [ABA, abscisic acid] was run?
**A.** The value was “significantly reduced”.

**Q.** And the “activity of RAR ligands” value [2]?
**A.** Its value is “synergistically enhances”.
